Data as given in publication PMC10524218 (Clinical cancer research : an official journal of the …, 2023).

How the values were obtained:
[1] = system: γH2AX foci in hair follicles; assay: γH2AX foci formation in hair follicles as marker of DNA double-strand breaks; assay type: in vivo, human; settings: hair follicles from eight patients
[2] = single-agent sacituzumab govitecan ref 35; cited from earlier work
SCLC = settings: monotherapy, SCLC ref 45; cited from earlier work
[3] = Pharmacokinetics in patient blood samples, noncompartmental analysis; settings: versus patients without; P=0.016; Fig. S3
[4] = human, in vivo

For sacituzumab govitecan, the “γH2AX foci in hair follicles following sacituzumab govitecan” value [1] is given as “substantial increase in the number and intensity of γH2AX foci”, the “Grade ≥ 3 neutropenia, fraction of patients” value [2] is given as “about one-third” and the Tumor responses (SCLC) is given as “led to tumor responses in SCLC”.

With `CCc1c2c(nc3ccc(O)cc13)-c1cc3c(c(=O)n1C2)COC(=O)[C@]3(O)CC` [SN-38] the “SN-38 AUC in patients experiencing lymphopenia” value [3] was “higher”.

In the case of `CCc1c2c(nc3ccc(O[C@@H]4O[C@H](C(=O)O)[C@@H](O)[C@H](O)[C@H]4O)cc13)-c1cc3c(c(=O)n1C2)COC(=O)[C@]3(O)CC` [SN-38G], the “SN-38G Cmax in patients experiencing fatigue” value [4] is reported as “higher”.
